SMILES strings stand for the structures.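 These data come from cells grown in 96-well plates and exposed to compound for 48 hours at five concentrations. Here, GI50 denotes the concentration required for 50% inhibition of growth. TGI is the concentration that stops growth completely.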

What all share (assay): growth of human tumour cells (NCI), 48 h
The subject of assay [1] is SK-OV-3 ovarian.
Assay [2] has as its system HT29 colon.
Assay [3] deals with ACHN renal.
Assay [4] concerns UO-31 renal.
Assay [5] concerns HCT-116 colon.
The subject of assay [6] is NCI-H23 lung.
The subject of assay [7] is NCI-H460 lung.
For assay [8], the system named is OVCAR-4 ovarian.
Assay [9] deals with HCC-2998 colon.
In assay [10] the test system is HOP-92 NSCLC.

Take `Cc1sc2nc(-c3ccncc3)c(/C=N/N=C(N)N)n2c1C`: the GI50 in assay [1] is 62.2 µM; in assay [2] it was 40 µM; in [3], 49.7 µM; in assay [4], 54.1 µM; in assay [5], 27.7 µM; in [6], 48.4 µM. For the same compound, the GI50 was 27.3 µM in assay [7] and 67.3 µM in assay [8]. The TGI is more than 100 µM in assay [1]; more than 100 µM in [2]; more than 100 µM in assay [3]; more than 100 µM in [4]; 81.8 µM in assay [5]; more than 100 µM in assay [6]. Further, the TGI in assay [7] and in assay [8] was more than 100 µM throughout.
In the case of `C=C1C(O)C2C(=C(CCc3ccccc3)C13CC3)C(=O)C(C)(CO)C2O` (centres undefined), the GI50 in assay [2] was more than 100 µM; in [3], more than 100 µM; in assay [9] it was more than 100 µM; in assay [10], 12.5 µM; in [4], more than 100 µM; in [6], more than 100 µM. For the same compound, the GI50 in assay [7] and in assay [8] was more than 100 µM throughout. Further, the TGI in [2], in assay [3], in [9], in assay [10], in assay [4] and in assay [6] was more than 100 µM throughout. Also, the TGI in assay [7] and in assay [8] was more than 100 µM each time.
For `Cc1ccc(SC(CCC(Sc2ccc(C)cc2)Sc2ccc(C)cc2)Sc2ccc(C)cc2)cc1`, the TGI in assay [1], in [3], in [10], in assay [4], in [5] and in [6] was more than 100 µM in each case. In addition, the TGI in assay [7] and in assay [8] was more than 100 µM each time.
As to `Cc1cc(S(=O)(=O)Nc2nc3cscc3c(=O)n2Cc2ccccc2)c(S)cc1Cl`, the GI50 in assay [2] is 47.9 µM; in assay [3] it was 52.6 µM; in assay [9], 18.9 µM; in assay [10] it was more than 100 µM; in assay [4] it was 51.8 µM; in [5], 27.5 µM. In addition, the GI50 was 51.5 µM in assay [6], 28.8 µM in assay [7] and more than 100 µM in assay [8]. In addition, the TGI in assay [2] was more than 100 µM; in assay [3] it was more than 100 µM; in assay [9] it was 68.5 µM; in assay [10] it was more than 100 µM; in assay [4], more than 100 µM; in assay [5], more than 100 µM. Besides, the TGI in assay [6], in [7] and in assay [8] was more than 100 µM in each case.
Regarding `C#Cc1cccc(N2C(=O)CCC2=O)c1`, the TGI in assay [1] was determined as 43 µM; in assay [2], 34.2 µM; in [3], 30.6 µM; in assay [9], 29.5 µM; in assay [4], 31.9 µM; in assay [5] it was 23.1 µM. For the same compound, the figures for the TGI in [6], in [7] and in [8] were 24.5 µM, 71.7 µM and 20.5 µM, respectively.
`CC1CCC2(CC1)NN=c1s/c(=C\c3ccc(O)cc3)c(=O)n1N2` (centres undefined): the TGI in assay [1], in assay [2], in assay [9], in assay [5], in [6] and in [7] was more than 100 µM in each case. The TGI in [8] is more than 100 µM.
Take `CC(=O)[O][Ga]([Cl])[O]C(C)=O`: the GI50 in assay [1], in [2], in assay [3], in assay [10], in assay [4] and in assay [5] was more than 100 µM each time. Also, the GI50 in assay [6], in assay [7] and in [8] was more than 100 µM each time. In addition, the TGI in assay [1], in assay [2], in assay [3], in [10], in [4] and in assay [5] was more than 100 µM throughout. For the same compound, the TGI in [6], in assay [7] and in assay [8] was more than 100 µM throughout.
Take `c1cc(N(CCn2cccn2)CCn2cccn2)cc(N(CCn2cccn2)CCn2cccn2)c1`: the TGI in assay [1], in [3], in assay [9], in assay [10], in [4] and in [5] was more than 100 µM in each case. Besides, the TGI in assay [7] and in assay [8] was more than 100 µM each time.
As to `Oc1[nH]c2ccccc2c1N=Nc1ccccn1`, the TGI in assay [1] came out at 38.1 µM; in assay [2], 55.5 µM; in assay [3], 23 µM; in [9], 82.8 µM; in assay [4], 33.7 µM; in assay [5], 25.2 µM. The results for the TGI in [6], in assay [7] and in [8] were more than 100 µM, 35.6 µM and 45.6 µM, respectively.
On to `CC(C(=O)c1ccccc1)C(c1ccccc1)N1CCOCC1` (centres undefined), for which the TGI in [1], in assay [2], in assay [3], in [10], in assay [5] and in assay [6] was more than 100 µM throughout. Besides, the TGI in assay [7] and in [8] was more than 100 µM in each case.
Take `CCCCCC(=O)C(C)C1=Nc2nnc(CCCCCCCc3nnc4n3C(=O)C(C(C)C(=O)CCCCC)=N4)n2C1=O` (centres undefined): the TGI in assay [1], in [2], in assay [3], in [9], in [4] and in assay [5] was more than 100 µM in each case. In addition, the TGI in [6], in [7] and in [8] was more than 100 µM in each case.
As for `CC(=O)[CH-]C(C)=O.CC(=O)[CH-]C(C)=O.[CH2-]CCC.[CH2-]CCC.[Sn+4]`, the GI50 is 1.69 µM in assay [1]; 1.28 µM in assay [2]; 0.487 µM in assay [3]; 0.256 µM in [10]; 1.03 µM in [4]; 0.65 µM in assay [5]. Besides, the GI50 was 0.315 µM in assay [6], 1.39 µM in [7] and 1.31 µM in assay [8]. In addition, the TGI in assay [1] worked out at 3.09 µM; in assay [2], 2.59 µM; in assay [3] it was 1.66 µM; in assay [10] it was 1.25 µM; in assay [4], 2.21 µM; in assay [5], 1.96 µM. In addition, the TGI was determined as 1.39 µM in assay [6], 2.9 µM in assay [7] and 2.61 µM in assay [8].

For the origin of these results see PubChem BioAssay (NCI).
